Experimental data from ChEMBL document CHEMBL1132946 (J Med Chem, 2000).
pKi: −log10 of the molar value.

Key:
[1] = biological target: T1, Adenosine receptor A1 (Bos taurus, UniProt P28190); experiment: biochemical
T1 sequence (P28190 whole entry): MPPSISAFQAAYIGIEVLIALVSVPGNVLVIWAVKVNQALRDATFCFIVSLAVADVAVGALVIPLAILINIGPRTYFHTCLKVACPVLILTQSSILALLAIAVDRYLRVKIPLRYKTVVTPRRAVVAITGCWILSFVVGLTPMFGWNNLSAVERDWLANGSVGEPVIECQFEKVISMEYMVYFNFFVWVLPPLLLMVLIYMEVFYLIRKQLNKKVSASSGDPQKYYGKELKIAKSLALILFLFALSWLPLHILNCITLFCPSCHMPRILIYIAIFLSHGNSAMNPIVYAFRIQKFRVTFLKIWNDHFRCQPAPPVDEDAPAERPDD

[2] = biological target: T2, Adenosine receptor A3 (Rattus norvegicus, UniProt P28647); experiment: Ability to displace the specific binding of [3H](R)-PIA to adenosine A3 receptor from rat testis membranes; type: cell membranes, Membrane
T2 sequence (P28647 whole entry): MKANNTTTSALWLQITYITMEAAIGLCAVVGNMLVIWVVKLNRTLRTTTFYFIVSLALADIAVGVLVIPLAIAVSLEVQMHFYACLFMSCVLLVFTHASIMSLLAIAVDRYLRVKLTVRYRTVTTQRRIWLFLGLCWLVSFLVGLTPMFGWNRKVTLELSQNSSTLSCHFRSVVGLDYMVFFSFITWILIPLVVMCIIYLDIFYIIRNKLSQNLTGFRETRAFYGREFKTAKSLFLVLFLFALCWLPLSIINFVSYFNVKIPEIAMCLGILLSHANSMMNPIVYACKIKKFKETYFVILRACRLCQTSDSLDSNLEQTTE

[3] = Selectivity, ratio of affinity towards adenosine A3 to A1
[4] = species: Bos taurus; experiment: Selectivity, ratio of affinity towards adenosine A2A to A1
[5] = biological target: Adenosine receptor A2a (Bos taurus); experiment: biochemical
[6] = species: Bos taurus; experiment: Selectivity, ratio of affinity towards adenosine A3 to A2A
[7] = biological target: T1, Adenosine receptor A1; experiment: Displacement of [3H]CHA from A1 Adenosine receptor of Bovine brain cortical membranes

With `Cc1ccc2c(N3CCNCC3)cc(-c3ccccc3)nc2n1` as the compound, how does the pKi [1] read?
Its pKi is 5.06.

What about the pKi [2] of the same compound?
Its pKi is under 5.00.

With `Cc1ccc2c(Oc3ccccc3)cc(-c3ccccc3)nc2n1` as the compound, how does the pKi [2] read?
Its pKi is under 5.00.

With `Cc1ccc2ccc(-c3ccccc3)nc2n1` as the compound, how does the pKi [1] read?
The pKi was 5.16.

And the pKi [2]?
Its pKi is under 5.00.

With `Cc1ccc2c(S)cc(-c3ccccc3)nc2n1` as the compound, how does the pKi [1] read?
The pKi was 7.10.

What about the pKi [2] of the same compound?
The pKi was under 5.00.

What does the source list for `Oc1cc(-c2ccccc2)nc2nc(F)ccc12`?
Selectivity [3]: > 2440; Selectivity [4]: 41; pKi [5]: 6.77; Selectivity [6]: > 59; pKi [1]: 8.39; pKi [2]: < 5.00

With `Oc1cc(-c2ccccc2)nc2nc(Oc3ccccc3)ccc12` as the compound, how does the pKi [1] read?
The pKi was 7.59.

What about the pKi [2] of the same compound?
The pKi was under 5.00.

With `Oc1cc(-c2ccccc2)nc2ncccc12` as the compound, how does the pKi [1] read?
The pKi was 7.80.

And the pKi [2]?
The pKi was 5.52.

With `CCOC(=O)N1CCN(c2cc(-c3ccccc3)nc3nc(C)ccc23)CC1` as the compound, how does the pKi [1] read?
The pKi was 5.92.

And the pKi [2]?
Its pKi is under 5.00.

With `Cc1ccc2c(N(C)C)cc(-c3ccccc3)nc2n1` as the compound, how does the pKi [1] read?
The pKi was 6.26.

What about the pKi [2] of the same compound?
The pKi was under 5.00.

For `Cc1ccc2c(O)cc(-c3ccccc3F)nc2n1`, which Selectivity [3] is on record?
The Selectivity was 418.

What about the Selectivity [4] of the same compound?
The Selectivity was 43.

What about the pKi [5] of the same compound?
The pKi was 6.33.

What about the Selectivity [6] of the same compound?
The Selectivity was 10.

What about the pKi [1] of the same compound?
Its pKi is 7.96.

What about the pKi [2] of the same compound?
Its pKi is 5.34.

What does the source list for `Cc1ccc2c(Cl)cc(-c3ccccc3)nc2n1`?
Selectivity [3]: > 10; Selectivity [4]: > 10; pKi [5]: < 5.00; pKi [2]: < 5.00; pKi [7]: 6.00

With `COc1cc(-c2ccccc2)nc2c1ccc(=O)n2C` as the compound, how does the pKi [1] read?
Its pKi is 5.89.

What about the pKi [2] of the same compound?
Its pKi is under 5.00.

For `Cc1ccc2c(O)cc(-c3ccccc3)nc2n1`, which Selectivity [3] is on record?
Its Selectivity is 1660.

What about the Selectivity [4] of the same compound?
Its Selectivity is 87.

And the pKi [5]?
Its pKi is 6.34.

And the Selectivity [6]?
Its Selectivity is 19.

And the pKi [1]?
Its pKi is 8.28.

And the pKi [2]?
Its pKi is 5.06.

With `Oc1cc(-c2ccccc2)nc2nc(Cl)ccc12` as the compound, how does the pKi [1] read?
Its pKi is 9.82.

And the pKi [2]?
The pKi was 5.68.

With `Cc1ccc2c(N)cc(-c3ccccc3)nc2n1` as the compound, how does the pKi [1] read?
The pKi was 7.77.

And the pKi [2]?
The pKi was under 5.00.

Which results are given for `Cc1ccc2c(O)cc(-c3ccc(F)cc3)nc2n1`?
pKi [1]: 8.28; pKi [2]: 5.21

What does the source list for `Cc1ccc2c(NC3CCCCC3)cc(-c3ccccc3)nc2n1`?
pKi [1]: 7.55; pKi [2]: < 5.00

Which results are given for `Nc1ccc2c(O)cc(-c3ccccc3)nc2n1`?
pKi [1]: 8.28; pKi [2]: < 5.00

What does the source list for `Cc1ccc2c(O)cc(-c3ccc([N+](=O)[O-])cc3)nc2n1`?
pKi [1]: 8.00; pKi [2]: < 5.00

Which results are given for `Cn1c(=O)ccc2c(O)cc(-c3ccccc3)nc21`?
pKi [1]: 5.31; pKi [2]: < 5.00

With `Cc1ccc2c(NN)cc(-c3ccccc3)nc2n1` as the compound, how does the pKi [1] read?
The pKi was 7.00.

And the pKi [2]?
Its pKi is under 5.00.

With `COc1cc(-c2ccccc2)nc2nc(C)ccc12` as the compound, how does the pKi [1] read?
Its pKi is 5.22.

And the pKi [2]?
Its pKi is under 5.00.

With `Oc1cc(-c2ccccc2)nc2nc(Br)ccc12` as the compound, how does the pKi [1] read?
The pKi was 9.15.

And the pKi [2]?
Its pKi is 5.68.

With `CCCn1c(=O)c2[nH]c(-c3ccc(OCC(=O)NCCN)cc3)nc2n(CCC)c1=O` [XANTHINE AMINE CONGENER] as the compound, how does the pKi [1] read?
The pKi was 8.89.

And the pKi [2]?
Its pKi is 6.38.

With `Cc1ccc2c(N=[N+]=[N-])cc(-c3ccccc3)nc2n1` as the compound, how does the pKi [5] read?
Its pKi is under 5.00.

And the pKi [1]?
The pKi was under 5.00.

What about the pKi [2] of the same compound?
The pKi was under 5.00.

With `CCn1c(-c2ccccc2)cc(=O)c2ccc(C)nc21` as the compound, how does the pKi [1] read?
Its pKi is 6.35.

What about the pKi [2] of the same compound?
The pKi was under 5.00.

With `COc1ccc2c(O)cc(-c3ccccc3)nc2n1` as the compound, how does the pKi [1] read?
The pKi was 8.80.

What about the pKi [2] of the same compound?
The pKi was under 5.00.

With `OC[C@H]1O[C@@H](n2cnc3c(NC4CCCCC4)ncnc32)[C@H](O)[C@@H]1O` as the compound, how does the pKi [1] read?
Its pKi is 8.89.

And the pKi [2]?
The pKi was 7.60.

With `O=c1ccc2c(O)cc(-c3ccccc3)nc2[nH]1` as the compound, how does the pKi [1] read?
The pKi was under 5.00.

And the pKi [2]?
Its pKi is under 5.00.

With `CCOc1ccc2c(O)cc(-c3ccccc3)nc2n1` as the compound, how does the Selectivity [3] read?
The Selectivity was over 1920.

And the Selectivity [4]?
Its Selectivity is over 1920.

What about the pKi [5] of the same compound?
Its pKi is under 5.00.

And the pKi [1]?
The pKi was 8.28.

What about the pKi [2] of the same compound?
Its pKi is under 5.00.
